In patent publication US11452731B2, “Method of treating and preventing loss of cognition” (ENDORECHERCHE, INC., priority 2009, dated 2022):
Where “and” joins values, the source holds several entries; their conditions need not be identical. Equal values may be shown once.

Test: Clinical trial ERC-205: DHEA 50 mg daily versus placebo on hot flushes in postmenopausal women (Example 10)
Type: in vivo
Details: for NUMBER OF MODERATE TO SEVERE HOT FLUSHES PER WEEK (MEAN) / WEIGHTED SEVERITY SCORE OF HOT FLUSHES PER WEEK (MEAN) / NUMBER OF ALL HOT FLUSHES PER WEEK (MEAN): 50 mg, strata ≥71 hot flushes per week at screening; for Number of all hot flushes per week, MEAN / Number of moderate to severe hot flushes per week, MEAN / Weighted severity score of hot flushes per week, MEAN / Mean change from baseline: Frequency of all HF / Mean change from baseline: Frequency of moderate-severe HF / Mean change from baseline: Weighted severity score of HF: DHEA 50 mg daily; for number of all hot flushes per week: women having more than 70 mild, moderate plus severe hot flushes
Description: Postmenopausal women experiencing moderate or severe hot flushes per week (as determined by a two week diary) were randomized to receive a daily dose of either placebo or 50 mg DHEA. Fifty evaluable participants (25 patients per arm) were treated for four months with a daily assessment of hot flushes recorded in a diary completed by each participant.
Postmenopausal women aged 40 to 70 years with moderate or severe hot flushes per week, as confirmed by a two-week screening hot flush diary were enrolled after signing informed consent. The protocol was approved by the Institutional Review Board (IRB) of Le Centre Hospitalier de l'Université Laval and by Health Canada.
The primary endpoint was the change from Baseline in the weekly frequency of moderate to severe hot flushes at Week 16, after four months of treatment. The objectives also included the change from Baseline in the weekly frequency of all hot flushes and the change from Baseline in the weekly weighted severity score.
The response endpoint is the patient's paper diary which was filled in daily to specify the number and type of hot flushes as follows:
The hot flush diary began as a Screening diary for two weeks prior to randomization whereby patients had to complete the diary daily, recording the number and severity of hot flushes. The patients had to record an average of 50 or more moderate or severe hot flushes per week over the two-week period to be eligible (i.e., at least 100 hot flushes documented on the two week Screening diary).
Once randomized, the patient completed eight, two-week hot flush diaries upon beginning study medication. The diaries had to be filled out on a daily basis. The first diary was completed over the first two weeks and be returned on the two week visit. The second two-week diary was completed over the next two weeks of the first four week treatment period and was returned at the four week visit. At 4, 8, 12 and 16 week visits, two two-week diaries for hot flushes were collected.

[1] = Screening (mean of 2 w), baseline
[2] = women having 71 or more hot flushes per week at screening
[3] = women having between 50 and 70 per week

C[C@]12CC[C@H](O)CC1=CC[C@@H]1[C@@H]2CC[C@]2(C)C(=O)CC[C@@H]12 [DHEA, dehydroepiandrosterone]
NUMBER OF MODERATE TO SEVERE HOT FLUSHES PER WEEK (MEAN) (Week 14): 32.0 | WEIGHTED SEVERITY SCORE OF HOT FLUSHES PER WEEK (MEAN) (Week 14): 96.6 | NUMBER OF ALL HOT FLUSHES PER WEEK (MEAN) (Week 15): 38.8 | NUMBER OF MODERATE TO SEVERE HOT FLUSHES PER WEEK (MEAN) (Week 15): 34.4 | WEIGHTED SEVERITY SCORE OF HOT FLUSHES PER WEEK (MEAN) (Week 15): 103.6 | NUMBER OF ALL HOT FLUSHES PER WEEK (MEAN) (Week 16): 36.3 | NUMBER OF MODERATE TO SEVERE HOT FLUSHES PER WEEK (MEAN) (Week 16): 31.6 | WEIGHTED SEVERITY SCORE OF HOT FLUSHES PER WEEK (MEAN) (Week 16): 95.2 | Number of all hot flushes per week, MEAN [1]: 75.5±4.4 and 75.7 | Number of moderate to severe hot flushes per week, MEAN [1]: 70.7±4.5 and 70.7 | Weighted severity score of hot flushes per week, MEAN [1]: 187.1±13.9 and 187.1 | Number of all hot flushes per week, MEAN (Week 1): 64.2 | Number of moderate to severe hot flushes per week, MEAN (Week 1): 58.6 | Weighted severity score of hot flushes per week, MEAN (Week 1): 156.0 | Number of all hot flushes per week, MEAN (Week 2): 56.4 | Number of moderate to severe hot flushes per week, MEAN (Week 2): 51.0 | Weighted severity score of hot flushes per week, MEAN (Week 2): 137.5 | Number of all hot flushes per week, MEAN (Week 3): 54.6 | Number of moderate to severe hot flushes per week, MEAN (Week 3): 49.1 | Weighted severity score of hot flushes per week, MEAN (Week 3): 132.5 | Mean change from baseline: Frequency of all HF (Week 4): −20.4 | Mean change from baseline: Frequency of moderate-severe HF (Week 4): −20.6 | Mean change from baseline: Weighted severity score of HF (Week 4): −51.4 | Number of all hot flushes per week, MEAN (Week 4): 55.3±5.8 and 55.3 | Number of moderate to severe hot flushes per week, MEAN (Week 4): 50.1±5.7 and 50.1 | Weighted severity score of hot flushes per week, MEAN (Week 4): 135.7 | Number of all hot flushes per week, MEAN (Week 5): 49.8 | Number of moderate to severe hot flushes per week, MEAN (Week 5): 44.4 | Weighted severity score of hot flushes per week, MEAN (Week 5): 120.9 | Number of all hot flushes per week, MEAN (Week 6): 47.9 | Number of moderate to severe hot flushes per week, MEAN (Week 6): 43.0 | Weighted severity score of hot flushes per week, MEAN (Week 6): 115.2 | Number of all hot flushes per week, MEAN (Week 7): 44.5 | Number of moderate to severe hot flushes per week, MEAN (Week 7): 39.6 | Weighted severity score of hot flushes per week, MEAN (Week 7): 108.3 | Mean change from baseline: Frequency of all HF (Week 8): −31.0 | Mean change from baseline: Frequency of moderate-severe HF (Week 8): −30.1 | Mean change from baseline: Weighted severity score of HF (Week 8): −76.9 | Number of all hot flushes per week, MEAN (Week 8): 44.7±6.3 and 44.7 | Number of moderate to severe hot flushes per week, MEAN (Week 8): 40.2±6.1 and 40.2 | Weighted severity score of hot flushes per week, MEAN (Week 8): 109.4 | Number of all hot flushes per week, MEAN (Week 9): 44.3 | Number of moderate to severe hot flushes per week, MEAN (Week 9): 39.6 | Weighted severity score of hot flushes per week, MEAN (Week 9): 106.5 | Number of all hot flushes per week, MEAN (Week 10): 43.1 | Number of moderate to severe hot flushes per week, MEAN (Week 10): 38.6 | Weighted severity score of hot flushes per week, MEAN (Week 10): 104.5 | Number of all hot flushes per week, MEAN (Week 11): 40.9 | Number of moderate to severe hot flushes per week, MEAN (Week 11): 36.0 | Weighted severity score of hot flushes per week, MEAN (Week 11): 98.2 | Mean change from baseline: Frequency of all HF (Week 12): −36.2 | Mean change from baseline: Frequency of moderate-severe HF (Week 12): −35.6 | Mean change from baseline: Weighted severity score of HF (Week 12): −93.6 | Number of all hot flushes per week, MEAN (Week 12): 39.5±5.9 and 39.5 | Number of moderate to severe hot flushes per week, MEAN (Week 12): 34.7±5.8 and 34.7 | Weighted severity score of hot flushes per week, MEAN (Week 12): 92.7 | Number of all hot flushes per week, MEAN (Week 13): 37.5 | Number of moderate to severe hot flushes per week, MEAN (Week 13): 33.2 | Weighted severity score of hot flushes per week, MEAN (Week 13): 90.1 | Number of all hot flushes per week, MEAN (Week 14): 37.6 | Number of moderate to severe hot flushes per week, MEAN (Week 14): 33.3 | Weighted severity score of hot flushes per week, MEAN (Week 14): 90.9 | Number of all hot flushes per week, MEAN (Week 15): 37.5 | Number of moderate to severe hot flushes per week, MEAN (Week 15): 34.0 | Weighted severity score of hot flushes per week, MEAN (Week 15): 91.8 | Mean change from baseline: Frequency of all HF (Week 16): −39.8 | Mean change from baseline: Frequency of moderate-severe HF (Week 16): −38.1 | Mean change from baseline: Weighted severity score of HF (Week 16): −99.1 | Number of all hot flushes per week, MEAN (Week 16): 36.0±5.7 and 36.0 | Number of moderate to severe hot flushes per week, MEAN (Week 16): 32.2±5.8 and 32.2 | Weighted severity score of hot flushes per week, MEAN (Week 16): 87.2±15.8 and 87.2 | reduction of the weighted severity score (all women, week 16 (Table 18)): 99.1±15.6 | decrease in weighted severity score (at 16 weeks): 53.4% | higher efficacy of DHEA than placebo on weighted severity score (at 16 weeks): 3.0 fold | decrease in frequency of all hot flushes (screening to week 16): 52.4% | decrease in number of moderate to severe hot flushes (screening to week 16): 54.5% | decrease in moderate to severe hot flushes [2]: 64.3% | greater inhibition by DHEA than placebo [2]: 65% | mean number of moderate to severe hot flushes per week (women having 71 or more hot flushes per week at screening, after DHEA treatment): 31.6±11.6 | mean number of moderate to severe hot flushes per week (women having 71 or more hot flushes per week at screening, screening value): 88.5±7.1 | decrease in weighted severity score (women having between 50 and 70 hot flushes per week): 43.5% | weighted severity score (women having between 50 and 70 hot flushes per week, screening): 144.3±6.7 | weighted severity score (women having between 50 and 70 hot flushes per week, week 16): 81.6±13.6 | decrease in moderate to severe hot flushes [3]: 43.3% | inhibition by DHEA over the placebo effect [3]: 43% | number of moderate to severe hot flushes per week (women having between 50 and 70 per week, prescreening): 56.7±1.3 | number of moderate to severe hot flushes per week (women having between 50 and 70 per week, week 6 as printed): 32.7±6.2 | decrease in number of all hot flushes (women having more than 70 hot flushes): 60% | decrease in weighted severity score (women having more than 70 hot flushes per week): 61.6% | weighted severity score (women having more than 70 hot flushes per week, screening): 241.6±21.1 | weighted severity score (women having more than 70 hot flushes per week, week 16): 95.2±34.3 | number of all hot flushes per week (prescreening): 91.0±7.0 | number of all hot flushes per week (week 16): 36.3±11.5 | greater efficacy of DHEA than placebo (women having the largest number of hot flushes of all degrees of severity): 50%
